# Where a name gives a salt, the structure may show the parent alone. Read-outs that look alike come from different tables or passages of the source.
# Columns and labels:
# [1] = test system: rVSVΔG-GFP/SARS2-S; assay: microbe, parasite or virus in culture; assay type: cell-based; details: for rVSVΔG-GFP/SARS2-S GFP (%): 10 μM, HEK293T/ACE2, 16 hpi, GFP-positive cells, vehicle-treated = 100%; for activity at 10 µM: Severe acute respiratory syndrome coronavirus 2, HEK-293T, 16 h, read-out: rVSVΔG-GFP/SARS2-S GFP (%)
# [2] = test system: HEK293T/ACE2 cells
# [3] = test system: rVSVΔG-GFP/VSVG; assay: microbe, parasite or virus in culture; assay type: cell-based; details: for activity at 10 µM: Vesicular stomatitis virus, HEK-293T, 16 h, read-out: rVSVΔG-GFP/VSVG GFP (%)
# [4] = test system: rVSVΔG-GFP/SARS2-S
# [5] = test system: VeroE6/TMPRSS2 cells; details: 10 μM, 17.5 h
# [6] = target: SARS2-S–NRP-1 binding (rS1 / rNRP-1) (Homo sapiens, UniProt O14786)
# [7] = test system: rVSVΔG-GFP/SARS2-S; assay: microbe, parasite or virus in culture; details: Severe acute respiratory syndrome coronavirus 2, HEK-293T
# [8] = target: purified ACE2; details: read-out: dissociation constant (KD), ref Lu et al., 2021; cited from earlier work
# [9] = 10 μM, HEK293T/ACE2, 16 hpi, GFP-positive cells, vehicle-treated = 100%
# Chain of SARS2-S–NRP-1 binding (rS1 / rNRP-1) (O14786 22-856): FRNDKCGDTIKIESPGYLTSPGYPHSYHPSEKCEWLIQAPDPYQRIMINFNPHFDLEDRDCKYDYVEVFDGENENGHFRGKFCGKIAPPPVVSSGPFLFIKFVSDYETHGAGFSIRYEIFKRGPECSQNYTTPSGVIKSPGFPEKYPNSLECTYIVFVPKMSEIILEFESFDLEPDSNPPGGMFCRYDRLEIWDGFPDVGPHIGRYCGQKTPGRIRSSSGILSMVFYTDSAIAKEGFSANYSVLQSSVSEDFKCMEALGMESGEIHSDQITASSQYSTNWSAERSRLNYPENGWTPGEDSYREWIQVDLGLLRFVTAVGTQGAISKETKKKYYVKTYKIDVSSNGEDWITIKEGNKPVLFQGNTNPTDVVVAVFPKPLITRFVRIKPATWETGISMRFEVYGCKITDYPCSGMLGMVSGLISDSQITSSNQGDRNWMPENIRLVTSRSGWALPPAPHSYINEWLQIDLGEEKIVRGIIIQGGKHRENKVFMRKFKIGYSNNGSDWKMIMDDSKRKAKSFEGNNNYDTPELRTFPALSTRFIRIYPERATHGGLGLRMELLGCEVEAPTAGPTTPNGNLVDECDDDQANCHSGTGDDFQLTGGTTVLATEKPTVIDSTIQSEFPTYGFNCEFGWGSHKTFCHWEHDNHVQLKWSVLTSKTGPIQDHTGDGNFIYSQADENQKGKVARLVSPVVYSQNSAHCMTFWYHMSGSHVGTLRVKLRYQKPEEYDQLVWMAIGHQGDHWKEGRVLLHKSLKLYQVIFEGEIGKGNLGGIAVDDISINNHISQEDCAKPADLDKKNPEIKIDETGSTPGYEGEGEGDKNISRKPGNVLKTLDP
SMILES,activity at 10 µM [1],rVSVΔG-GFP/SARS2-S Hoechst (%) ([2]; human),rVSVΔG-GFP/VSVG Hoechst (%) ([2]; human),activity at 10 µM [3],further results
C=CC(=O)Nc1cc(Nc2nccc(-c3cn(C)c4ccccc34)n2)c(OC)cc1N(C)CCN(C)C.CS(=O)(=O)O [AZD-9291 mesylate],,,,,"rVSVΔG-GFP/SARS2-S GFP (%) [1]: 5.36%; rVSVΔG-GFP/SARS2-S Hoechst (%) [2]: 98.67%; rVSVΔG-GFP/VSVG Hoechst (%) [2]: 98.67%; rVSVΔG-GFP/VSVG GFP (%) [3, 9]: 112.06%"
CC(CN(C)C)CN1c2ccccc2Sc2ccccc21 (stereo not shown) [Alimemazine tartrate],,,,,SI (CC50/EC50) [4]: 12.2; VeroE6/TMPRSS2 cell viability [5]: did not affect; NRP1–S1 Binding (Normalized signal intensity) [6]: inhibited; EC50 [7]: 2420 nM
Clc1ccc2c(c1)C(N1CCNCC1)=Nc1ccccc1O2 [Amoxapine],23.7%,102.06%,99.31%,116%,
"CN1CC2c3ccccc3Oc3ccc(Cl)cc3C2C1 (stereo not shown) [Asenapine Maleate, Asenapine maleate]",,98.20%,95.98%,,
CC[C@H]1OC(=O)[C@H](C)[C@@H](O[C@H]2C[C@@](C)(OC)[C@@H](O)[C@H](C)O2)[C@H](C)[C@@H](O[C@@H]2O[C@H](C)C[C@H](N(C)C)[C@H]2O)[C@](C)(O)C[C@@H](C)CN(C)[C@H](C)[C@@H](O)[C@]1(C)O [Azithromycin dihydrate],,100.22%,101.30%,,
Cc1c(-c2ccc(O)cc2)n(Cc2ccc(OCCN3CCCCCC3)cc2)c2ccc(O)cc12 [Bazedoxifene acetate],,88.96%,102.51%,,
CN(C)CCCN1c2ccccc2Sc2ccc(Cl)cc21 [Chlorpromazine hydrochloride],,,97.98%,,Kd [8]: 13.8 µM
C[C@@H](NCCCc1cccc(C(F)(F)F)c1)c1cccc2ccccc12 [Cinacalcet hydrochloride],,97.33%,95.94%,,
CN1CCC[C@@H]1CCO[C@](C)(c1ccccc1)c1ccc(Cl)cc1 [Clemastine fumarate],12.5%,106.94%,101.47%,105%,
CCCCc1oc2ccc(NS(C)(=O)=O)cc2c1C(=O)c1ccc(OCCCN(CCCC)CCCC)cc1 [Dronedarone hydrochloride],,99.72%,101.34%,,
NC(N)=NCCC[C@H](NC(=O)c1sccc1NS(=O)(=O)c1cccc2nsnc12)C(=O)O [EG00229],,,,,concentration required to inhibit SARS2-S–NRP-1 binding [6]: 1 mM
"OCCN1CCN(CCCN2c3ccccc3Sc3ccc(C(F)(F)F)cc32)CC1 [Fluphenazine hydrochloride, Fluphenazine dihydrochloride]",19.3%,103.35%,100.59%,106%,
"Cc1ccc(NC(=O)c2ccc(CN3CCN(C)CC3)cc2)cc1Nc1nccc(-c2cccnc2)n1 [Imatinib Mesylate (STI571), Imatinib Mesylate]",20.8%,96.53%,94.49%,,rVSVΔG-GFP/VSVG GFP (%) [3]: 103.15%
CNCCC=C1c2ccccc2CCc2ccccc21 [Nortriptyline hydrochloride],17.4%,81.23%,76.77%,91.7%,
Fc1ccc([C@@H]2CCNC[C@H]2COc2ccc3c(c2)OCO3)cc1 [Paroxetine hydrochloride],,102.73%,98.03%,,
OCCN1CCN(CCCN2c3ccccc3Sc3ccc(Cl)cc32)CC1 [Perphenazine],,,86.64%,,
"CN1CCN(CCCN2c3ccccc3Sc3ccc(Cl)cc32)CC1 [Prochlorperazine Maleate, Prochlorperazine dimaleate]",16.6%,97.05%,93.26%,131%,
O=C(c1ccc(OCCN2CCCCC2)cc1)c1c(-c2ccc(O)cc2)sc2cc(O)ccc12 [Raloxifene hydrochloride],,101.70%,103.53%,,
CN[C@H]1CC[C@@H](c2ccc(Cl)c(Cl)c2)c2ccccc21 [Sertraline hydrochloride],15.8%,101.27%,97.33%,105%,
CC/C(=C(\c1ccccc1)c1ccc(OCCN(C)C)cc1)c1ccccc1 [Tamoxifen citrate],16.3%,99.67%,97.14%,106%,
CSc1ccc2c(c1)N(CCC1CCCCN1C)c1ccccc1S2 (stereo not shown) [Thioridazine hydrochloride],15.8%,98.59%,95.38%,119%,
CN(C)CCOc1ccc(/C(=C(/CCCl)c2ccccc2)c2ccccc2)cc1 [Toremifene citrate],,99.98%,98.74%,,"rVSVΔG-GFP/SARS2-S GFP (%) [1]: 8.32%; rVSVΔG-GFP/VSVG GFP (%) [3, 9]: 109.35%"
CN(C)CCOc1ccc(/C(=C(/CCCl)c2ccccc2)c2ccccc2)cc1 [Toremifene],,101.27%,90.44%,,"rVSVΔG-GFP/SARS2-S GFP (%) [1]: 21.77%; rVSVΔG-GFP/VSVG GFP (%) [3, 9]: 142.24%"
CN1CCN(CCCN2c3ccccc3Sc3ccc(C(F)(F)F)cc32)CC1 [Trifluoperazine dihydrochloride],,107.56%,97.29%,,Kd [8]: 33.3 µM
CC(CN(C)C)CN1c2ccccc2CCc2ccccc21 (stereo not shown) [Trimipramine maleate],,,99.90%,,
"COc1cc2c(Nc3ccc(Br)cc3F)ncnc2cc1OCC1CCN(C)CC1 [Vandetanib (ZD6474), Vandetanib]",,104.11%,99.04%,,

# — PMC9721373 (Antiviral Research, 2022)
